Laboratory results published in paper PMC5554537 (Frontiers in Pharmacology, 2017).
pIC50: −log10 of the molar value. Read-outs that look alike come from different tables or passages of the source.

Key:
[1] = Stability in mouse plasma (QC samples); format: physicochemical
From the text: using octa-deuterated internal standards of SN30000, M13 and M14 synthesised as previously reported (Wang et al., 2012). Intra- and inter-day precision (expressed as relative standard deviation (RSD) and accuracy (expressed as percentage of the nominal value) were deter mined by analy sis of replicates (n=6) of low and high quality control (QC) samples on three different days. The lower limit of quantitation (LLOQ) was defined as the lowest concentration providing RSD and accuracy < 20%. Recovery from plasma and liver ho mogenates was tested at the three QC levels. The recoveries were evaluated by comparing extracted samples with blank extracted solutions spiked with analytes of the same amount.
Matrix effects, defined as the change in response due to the presence of other substances in the samples, were evaluated by comparing the analytes diluted into the blank plasma or liver extracted solution with that of the same stock solutions diluted in water. Three different concentration levels (low, medium and high QC) were evaluated by analysing three samples at each level. Accuracy , precision, recovery and matrix effects were all acceptable over the concentration ranges evaluated for plas ma (Supplementary Table 1) and for liver homogenates (Supplementary Table 2).
Stability of the analytes in mouse plasma (Supplementary Table 3) or liver homogenate (Supplementary Table 4) was confirmed during holding of QC samples on ice for up to 2 h under nor mal laboratory lighting, although there was a trend towards loss of SN30000 in plasma samples held in clear microcentrifuge tubes which may reflect the known photosensitivity of the compound (Gu et al., 2014). This loss was reduced by use of red microcentrifuge tubes, and eliminated by black tubes. Stability in both matrices was also confir med for one month storage at -80°C and for three freeze-thaw cycles, while MeOH-deproteinised samples w ere stable for 12 h at 4°C in the autosampler (Supplementary Tables

[2] = i.p. SN30000 186 mg/kg
Experimental: M18 was quantified by absorbance detection with reference to an external standard calibration curve.
Concentration-time data were analyzed by non-compartmental analysis using Phoenix WinNonlin (ver 6.4, Build 6.4.0768 Pharsight, United States); all AUC values were extrapolated to infinity using the linear trapezoidal rule.
SN30000, M14 and M13 were quantified by LC-MS/MS using stable isotope internal standards, while M18 was quantified by absorbance detection using external standard calibration curves.

[3] = target: T1, mouse brain acetylcholinesterase (Mus musculus, UniProt P21836); experiment: biochemical
T1 construct: from tissue; host or cells: mouse brain homogenate
T1 sequence (P21836 32-614): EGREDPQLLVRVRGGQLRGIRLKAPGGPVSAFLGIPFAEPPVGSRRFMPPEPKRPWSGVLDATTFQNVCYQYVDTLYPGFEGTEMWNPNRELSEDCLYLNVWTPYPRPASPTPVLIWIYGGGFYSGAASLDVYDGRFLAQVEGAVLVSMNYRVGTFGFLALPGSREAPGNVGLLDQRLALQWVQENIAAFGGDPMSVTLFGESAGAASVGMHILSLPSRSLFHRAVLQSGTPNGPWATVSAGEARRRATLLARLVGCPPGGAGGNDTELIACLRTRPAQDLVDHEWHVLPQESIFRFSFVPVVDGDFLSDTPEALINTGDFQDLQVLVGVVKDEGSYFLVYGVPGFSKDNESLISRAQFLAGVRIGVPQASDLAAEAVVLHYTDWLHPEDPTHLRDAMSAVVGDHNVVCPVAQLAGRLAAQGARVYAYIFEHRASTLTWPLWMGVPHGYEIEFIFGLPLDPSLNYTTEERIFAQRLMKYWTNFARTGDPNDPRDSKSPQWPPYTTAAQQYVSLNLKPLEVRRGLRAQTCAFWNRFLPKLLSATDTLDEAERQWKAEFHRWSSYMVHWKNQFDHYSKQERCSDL
Experimental: TABLE 10: Inhibition of mouse brain acetylcholinesterase activitya by SN30000 and related compounds […]
aThe acetylcholinesterase inhibition assay is based on Obregon et al., 2005. Mouse brain homogenate was prepared in potassium phosphate buffer (100 mM, pH 7.4), which was pre-incubated with dithiobisnitrobenzoate (final concentration 1 mM) at 37°C for 10 min. After adding acetylthiocholine (final concentration 0.6 mM), the formation of 5-thio-2-nitrobenzoate was measured by monitoring absorbance (Spectramax- M2 spectrophotometer) at 412 nm every 30 s for 10 min. Negative controls (DMSO or saline) and positive control […]
IC50 values are based on 3-4 deter minations per compound.

[4] = plasma deproteinised in 3 vol MeOH, 12 h autosampler at 4°C, nominal SN30000 0.5, M14 0.25, M13 0.1 µM
[5] = plasma deproteinised in 3 vol MeOH, 12 h autosampler at 4°C, nominal SN30000 5, M14 2.5, M13 1 µM
[6] = plasma deproteinised in 3 vol MeOH, 12 h autosampler at 4°C, nominal SN30000 50, M14 25, M13 10 µM
[7] = plasma, 1 month at -80°C, nominal SN30000 0.5, M14 0.25, M13 0.1 µM
[8] = plasma, 1 month at -80°C, nominal SN30000 5, M14 2.5, M13 1 µM
[9] = plasma, 1 month at -80°C, nominal SN30000 50, M14 25, M13 10 µM
[10] = plasma, 1 h on ice, black vial, nominal SN30000 0.5, M14 0.25, M13 0.1 µM
[11] = plasma, 1 h on ice, black vial, nominal SN30000 5, M14 2.5, M13 1 µM
[12] = plasma, 1 h on ice, black vial, nominal SN30000 50, M14 25, M13 10 µM
[13] = plasma, 1 h on ice, clear vial, nominal SN30000 0.5, M14 0.25, M13 0.1 µM
[14] = plasma, 1 h on ice, clear vial, nominal SN30000 5, M14 2.5, M13 1 µM
[15] = plasma, 1 h on ice, clear vial, nominal SN30000 50, M14 25, M13 10 µM
[16] = plasma, 1 h on ice, red vial, nominal SN30000 0.5, M14 0.25, M13 0.1 µM
[17] = plasma, 1 h on ice, red vial, nominal SN30000 5, M14 2.5, M13 1 µM
[18] = plasma, 1 h on ice, red vial, nominal SN30000 50, M14 25, M13 10 µM
[19] = plasma, 2 h on ice, black vial, nominal SN30000 0.5, M14 0.25, M13 0.1 µM
[20] = plasma, 2 h on ice, black vial, nominal SN30000 5, M14 2.5, M13 1 µM
[21] = plasma, 2 h on ice, black vial, nominal SN30000 50, M14 25, M13 10 µM
[22] = plasma, 2 h on ice, clear vial, nominal SN30000 0.5, M14 0.25, M13 0.1 µM
[23] = plasma, 2 h on ice, clear vial, nominal SN30000 5, M14 2.5, M13 1 µM
[24] = plasma, 2 h on ice, clear vial, nominal SN30000 50, M14 25, M13 10 µM
[25] = plasma, 2 h on ice, red vial, nominal SN30000 0.5, M14 0.25, M13 0.1 µM
[26] = plasma, 2 h on ice, red vial, nominal SN30000 5, M14 2.5, M13 1 µM
[27] = plasma, 2 h on ice, red vial, nominal SN30000 50, M14 25, M13 10 µM
[28] = plasma, three freeze-thaw cycles, nominal SN30000 0.5, M14 0.25, M13 0.1 µM
[29] = plasma, three freeze-thaw cycles, nominal SN30000 5, M14 2.5, M13 1 µM
[30] = plasma, three freeze-thaw cycles, nominal SN30000 50, M14 25, M13 10 µM
[31] = HT29 tumour, tumour-bearing mice
[32] = liver, HT29 tumour-bearing mice
[33] = plasma, HT29 tumour-bearing mice
[34] = plasma, non-tumour-bearing mice

With c1c2c(cc3nc(CCCN4CCOCC4)nnc13)CCC2 [M13] the Bias [1, 4] was -3.42%, the Measured conc [1, 4] was 0.10 µM and the Bias [1, 5] was -1.26%. For the same molecule, the Measured conc [1, 5] was 0.99 µM, the Bias [1, 6] was 5.41% and the Measured conc [1, 6] was 10.54 µM. The Bias [1, 7] was 1.68%, the Measured conc [1, 7] was 0.10 µM and the Bias [1, 8] was 1.94%. The Measured conc [1, 8] was 1.00 µM, the Bias [1, 9] was 1.85% and the Measured conc [1, 9] was 11.05 µM. The Bias [1, 10] was -7.00%, the Measured conc [1, 10] was 0.09 µM and the Bias [1, 11] was -7.17%. It also gave a Measured conc [1, 11] of 0.93 µM, a Bias [1, 12] of 5.90% and a Measured conc [1, 12] of 10.59 µM. It also gave a Bias [1, 13] of -7.05%, a Measured conc [1, 13] of 0.09 µM and a Bias [1, 14] of -3.76%. The Measured conc [1, 14] was 0.96 µM, the Bias [1, 15] was -3.61% and the Measured conc [1, 15] was 9.64 µM. It also gave a Bias [1, 16] of -5.72%, a Measured conc [1, 16] of 0.09 µM and a Bias [1, 17] of -5.29%. For the same molecule, the Measured conc [1, 17] was 0.95 µM, the Bias [1, 18] was 0.10% and the Measured conc [1, 18] was 10.01 µM. The Bias [1, 19] was -0.52%, the Measured conc [1, 19] was 0.10 µM and the Bias [1, 20] was 1.13%. The Measured conc [1, 20] was 1.01 µM, the Bias [1, 21] was 0.55% and the Measured conc [1, 21] was 10.06 µM. The Bias [1, 22] was -9.85%, the Measured conc [1, 22] was 0.09 µM and the Bias [1, 23] was -4.92%. It also gave a Measured conc [1, 23] of 0.95 µM, a Bias [1, 24] of -8.95% and a Measured conc [1, 24] of 9.10 µM. For the same molecule, the Bias [1, 25] was -7.29%, the Measured conc [1, 25] was 0.09 µM and the Bias [1, 26] was -4.71%. It also gave a Measured conc [1, 26] of 0.95 µM, a Bias [1, 27] of -3.91% and a Measured conc [1, 27] of 9.61 µM. It also gave a Bias [1, 28] of -4.05%, a Measured conc [1, 28] of 0.10 µM and a Bias [1, 29] of -2.61%. For the same molecule, the Measured conc [1, 29] was 0.97 µM, the Bias [1, 30] was 4.39% and the Measured conc [1, 30] was 10.44 µM. For the same molecule, the “Concentrations in brain compared with plasma” value [2] was “higher in brain than plasma”, the “AUC (extrapolated to infinity)” value [2, 31] was 57.7 µmol·h/kg and the Cmax [2, 31] was 15.5 ± 2.2 µmol/kg. For the same molecule, the “AUC (extrapolated to infinity)” value ([2]; brain, non-tumour-bearing mice) was 46.7 µmol·h/kg, the Cmax ([2]; brain, non-tumour-bearing mice) was 52.8 ± 4.1 µmol/kg and the “AUC (extrapolated to infinity)” value [2, 32] was 158 µmol·h/kg. The Cmax [2, 32] was 155.4 ± 8.4 µmol/kg, the “AUC (extrapolated to infinity)” value ([2]; liver, non-tumour-bearing mice) was 158 µmol·h/kg and the Cmax ([2]; liver, non-tumour-bearing mice) was 178.7 ± 8.1 µmol/kg. The “AUC (extrapolated to infinity)” value [2, 33] was 14. 9 µmol. hr/kg and the “AUC (extrapolated to infinity)” value [2, 34] was 13.0 µmol·h/kg.

In the case of O=C(O)CCc1nc2cc3c(cc2[n+]([O-])n1)CCC3 [M18], the Detection in brain [2] was “not detected in brain”, the Plasma concentration reached ([2]; negligible elimination up to 3 h) was > 100 µM and the “AUC 0-3hr” value ([2]; HT29 tumour) was 34.8 µmol·h/kg. The Cmax [2, 31] was 17.6 µmol/kg, the “AUC 0-3hr” value [2, 32] was 92 µmol·h/kg and the Cmax [2, 32] was 46.1 ± 5.2 µmol/kg. The “AUC 0-3hr” value ([2]; liver, non-tumour-bearing mice) was 107 µmol·h/kg, the Cmax ([2]; liver, non-tumour-bearing mice) was 53.5 ± 4.0 µmol/kg and the “AUC 0-3hr” value [2, 33] was 322 µmol·h/kg. The “AUC 0-3hr” value [2, 34] was 349 µmol·h/kg, the “Inhibition at 300 μM” value ([3]; mouse brain acetylcholinesterase, 300 μM) was “no inhibition” and the pIC50 ([3]; mouse brain homogenate, 37°C) was < 3.52.
